According to PubChem BioAssay (NCI):
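48-hour exposure; five concentrations; linearly interpolated endpoints. TGI is the concentration that stops growth completely.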

Assays:
Assay in all cases: NCI-60 cell line screen, 48 h
MOLT-4 leukemia = tested on: MOLT-4 leukemia
EKVX NSCLC = tested on: EKVX NSCLC
HCC-2998 colon = tested on: HCC-2998 colon
HOP-92 NSCLC = tested on: HOP-92 NSCLC
SNB-19 CNS = tested on: SNB-19 CNS
HCT-116 colon = tested on: HCT-116 colon
UO-31 renal = tested on: UO-31 renal
SF-539 CNS = tested on: SF-539 CNS
K-562 leukemia = tested on: K-562 leukemia
SK-MEL-5 melanoma = tested on: SK-MEL-5 melanoma

Compound	TGI (MOLT-4 leukemia)	TGI (EKVX NSCLC)	TGI (HCC-2998 colon)	TGI (HOP-92 NSCLC)	TGI (SNB-19 CNS)	TGI (HCT-116 colon)	TGI (UO-31 renal)	TGI (SF-539 CNS)	TGI (K-562 leukemia)	TGI (SK-MEL-5 melanoma)
Nc1ncnc2c1[nH]c(=O)n2-c1ccccc1	> 100 µM	> 100 µM	> 100 µM	> 100 µM	> 100 µM	> 100 µM	> 100 µM	> 100 µM	> 100 µM	> 100 µM
O=C(N/N=C/c1ccc(Cl)cc1)c1c(Cl)c(Cl)c(Cl)c(Cl)c1-c1nc2ccccc2[nH]1	> 100 µM	> 100 µM	> 100 µM	> 100 µM	> 100 µM	> 100 µM	> 100 µM	> 100 µM	> 100 µM	> 100 µM
O=S(=O)(c1ccccc1)c1cccc2c1NCCC2	> 100 µM	> 100 µM	> 100 µM	> 100 µM	> 100 µM	> 100 µM	> 100 µM	> 100 µM	> 100 µM	52 µM
COP(=O)(OC)C1=c2c(C)noc2=C2C=COC2C1=O (stereo not drawn)	> 100 µM	> 100 µM	> 100 µM	> 100 µM	> 100 µM	> 100 µM	> 100 µM	> 100 µM	> 100 µM	> 100 µM
COC(=O)c1c(C)nc2c1cc(O)c1[nH]c(C)c(C)nc12	> 100 µM	> 100 µM	> 100 µM	> 100 µM	> 100 µM	> 100 µM	> 100 µM	> 100 µM	> 100 µM	> 100 µM
O=[N+]([O-])c1cc(C=NC23CC4CC(CC(C4)C2)C3)ccc1Cl	27 µM	> 61.8 µM	75.1 µM	60.5 µM	> 58.5 µM	19.5 µM	15.8 µM	55.7 µM	> 43.6 µM	55.4 µM
Nc1nc(-c2ccccc2)nc2oc(-c3cccs3)nc12	> 100 µM	> 100 µM	> 100 µM	> 100 µM	> 100 µM	> 100 µM	> 100 µM	> 100 µM	> 100 µM	> 100 µM
O=C1CCCCC1CN1CCCCC1 (stereo not drawn)	> 100 µM	> 100 µM	> 100 µM	> 100 µM	> 100 µM	> 100 µM	> 100 µM	> 100 µM	> 100 µM	> 100 µM
COc1ccc(C(=C2C=CC=C2)c2ccc(OC)cc2)cc1	40.3 µM	> 100 µM	42.6 µM	> 100 µM	74.8 µM	84.8 µM	> 100 µM	29.6 µM	> 100 µM	95.3 µM
COC(=O)C1=C(C(=O)OC)SC(=C2SCSC3=C2SC(C(=O)OC)=C(C(=O)OC)C32SC3=C(CCCC3)S2)S1	> 100 µM	> 100 µM	> 100 µM	> 100 µM	> 100 µM	> 100 µM	> 100 µM	> 100 µM	> 100 µM	> 100 µM
NC1(c2cc3ccccc3s2)CCCC1	47.3 µM	> 100 µM	46.1 µM	> 100 µM	> 100 µM	> 100 µM	> 100 µM	45.3 µM	63 µM	68.2 µM
N#CC(NCc1cccc(CNC(C#N)c2ccccc2)c1)c1ccccc1 (stereo not drawn)	39 µM	> 100 µM	28.1 µM	89.8 µM	> 100 µM	56.4 µM	> 100 µM	26.1 µM	31.9 µM	> 100 µM
CCC(=O)NC(Nc1cc(C)on1)(C(F)(F)F)C(F)(F)F	> 100 µM	> 100 µM	> 100 µM	> 100 µM	> 100 µM	> 100 µM	> 100 µM	> 100 µM	> 100 µM	> 100 µM
CC(=O)N(C(=O)CC(=O)N1N=C(c2ccccc2)C(N=Nc2ccccc2[N+](=O)[O-])C1=O)c1ccc(Cl)cc1 (stereo not drawn)	> 10 µM	> 10 µM	> 10 µM	> 10 µM	> 10 µM	> 10 µM	> 10 µM	> 10 µM	> 10 µM	> 10 µM
COc1ccc2cc1Oc1ccc(cc1)C[C@H]1c3cc(c(OC)cc3CCN1C)Oc1c(O)c(OC)cc3c1[C@H](C2)N(C)CC3	26.4 µM	8.53 µM	24.7 µM	26.9 µM	134 µM	36 µM	58.8 µM	41.6 µM	83.5 µM	29.4 µM
c1ccc2c(c1)Cn1c-2nc2ccccc21	> 100 µM	> 100 µM	> 100 µM	> 100 µM	> 100 µM	> 100 µM	23 µM	> 100 µM	> 100 µM	> 100 µM
CCC(=O)NCC1CCCN2CCCCC12 (stereo not drawn)	> 100 µM	> 100 µM	> 100 µM	> 100 µM	> 100 µM	> 100 µM	> 100 µM	> 100 µM	> 100 µM	> 100 µM
Nc1nc2c(c(-c3cccc(Cl)c3)n1)COC/C2=C\c1cccc(Cl)c1	> 100 µM	> 100 µM	> 100 µM	> 100 µM	> 100 µM	> 100 µM	76.3 µM	> 100 µM	> 100 µM	> 100 µM
COc1ccc(-c2[nH]c3c4c(nc5c(c24)C(=O)CC(C)(C)C5)CC(C)(C)C3)cc1	94 µM	> 100 µM	> 100 µM	> 100 µM	> 100 µM	> 100 µM	> 100 µM	> 100 µM	> 100 µM	> 100 µM
O=C(C1OC1c1ccc(Br)cc1O)C12CC3CC(CC(C3)C1)C2 (stereo not drawn)	66.7 µM	> 100 µM	47.6 µM	48.8 µM	> 100 µM	30.9 µM	31.3 µM	> 100 µM	44.8 µM	56.8 µM
COc1ncc(/C=C2\OC(=O)c3ccccc32)c(OC)n1	> 100 µM	> 100 µM	> 100 µM	> 100 µM	> 100 µM	> 100 µM	> 100 µM	> 100 µM	> 100 µM	58.7 µM
N#C/C(=C1/Sc2c(nc[nH]c2=O)N1c1ccccc1)c1nc2ccccc2[nH]1	> 100 µM	> 100 µM	> 100 µM	> 100 µM	> 100 µM	> 100 µM	> 100 µM	> 100 µM	> 100 µM	> 100 µM

Compound	TGI (MOLT-4 leukemia)	TGI (EKVX NSCLC)	TGI (HCC-2998 colon)	TGI (HOP-92 NSCLC)	TGI (SNB-19 CNS)	TGI (HCT-116 colon)	TGI (UO-31 renal)	TGI (SF-539 CNS)	TGI (K-562 leukemia)	TGI (SK-MEL-5 melanoma)
C[C@]12CCC3C4=C(CCC3C1CCC2=O)C(=O)[C@H]1O[C@H]1C4=O (stereo partly drawn)	4.32 µM	27.7 µM	3.3 µM	16.8 µM	30 µM	2.16 µM	5.1 µM	5.38 µM	6.87 µM	23.9 µM
Oc1ccccc1CNCc1nc2ccccc2[nH]1	> 100 µM	> 100 µM	> 100 µM	> 100 µM	> 100 µM	> 100 µM	49.1 µM	> 100 µM	> 100 µM	65.6 µM
Cc1ccc(-c2csc(=Nc3ccccc3)n2NC(=O)c2ccncc2)cc1	> 76.8 µM	> 100 µM	> 100 µM	> 100 µM	> 100 µM	> 100 µM	> 100 µM	> 100 µM	36.1 µM	34.8 µM
Cc1ccc(NC(=O)CC2Sc3ccccc3NC2=O)cc1C (stereo not drawn)	> 100 µM	> 100 µM	> 100 µM	95.8 µM	> 100 µM	> 100 µM	> 100 µM	> 100 µM	> 100 µM	> 100 µM
CN(C)CCNS(=O)(=O)c1ccc(N)cc1	> 100 µM	> 100 µM	> 100 µM	> 100 µM	> 100 µM	> 100 µM	> 100 µM	> 100 µM	> 100 µM	> 100 µM
Cc1cc(-c2nc3ccc(F)cc3s2)ccc1NC(=O)[C@H](C)N	12.8 µM	23 µM	4.5 µM	24.7 µM	29.6 µM	11.4 µM	14 µM	14.9 µM	4.7 µM	26.3 µM
Cc1ccccc1C(=N)c1ccccc1Cc1cccc2ccccc12	42.3 µM	> 100 µM	36.7 µM	54.8 µM	> 100 µM	46.9 µM	> 100 µM	35.4 µM	> 100 µM	34.5 µM
CC(=O)c1c2c(c3ccccc3c1O)O[C@@H]1OCC[C@H]21	> 100 µM	> 100 µM	> 100 µM	> 100 µM	> 100 µM	> 100 µM	> 100 µM	> 100 µM	> 100 µM	> 100 µM
[N-]=[N+]=NC(c1ccccc1)(c1ccccc1)c1ccccc1	44.8 µM	27.8 µM	30.5 µM	32.3 µM	39.5 µM	30.2 µM	30 µM	31 µM	42.5 µM	26.8 µM
Nc1c(S(=O)(=O)O)cc2cc(S(=O)(=O)O)ccc2c1N=Nc1ccc(-c2ccc(N=Nc3c(N)c(S(=O)(=O)O)cc4cc(S(=O)(=O)O)ccc34)c(S(=O)(=O)O)c2)cc1	> 100 µM	> 100 µM	> 100 µM	> 100 µM	> 100 µM	> 100 µM	> 100 µM	> 100 µM	> 100 µM	> 100 µM
C=C1CCN2CC[C@@H](OC(=O)/C(C)=C\C)[C@@H]12	> 100 µM	> 100 µM	> 100 µM	> 100 µM	> 100 µM	> 100 µM	> 100 µM	> 100 µM	> 100 µM	> 100 µM
CC(C)=CCC[C@@H](C)c1c(O)c(O)c(C)c2nccnc12	> 53.1 µM	> 100 µM	> 96.6 µM	> 94.2 µM	> 100 µM	> 100 µM	45.9 µM	60.2 µM	> 66.6 µM	18.9 µM
Nc1nccc(-c2c[nH]c3cc(Br)ccc23)n1	61.8 µM	9.15 µM	64.9 µM	63.8 µM	47.5 µM	40.2 µM	39 µM	> 100 µM	> 100 µM	36.7 µM
CCCCCC1=CC(=O)C1(Cl)Cl	15.3 µM	49.6 µM	27.7 µM	63.3 µM	> 67.3 µM	28.4 µM	38.2 µM	38.9 µM	19.8 µM	24 µM
O=[N+]([O-])c1ccc2[nH]nc(OCc3ccccc3Cl)c2c1	> 100 µM	> 100 µM	> 100 µM	47.4 µM	> 100 µM	74.7 µM	–	50.9 µM	> 100 µM	> 100 µM
C(=C(c1ccc(OC2CCCCO2)cc1)c1ccc(OC2CCCCO2)cc1)c1ccccc1 (stereo not drawn)	> 100 µM	1.83 µM	1.97 µM	1.96 µM	2.54 µM	1.64 µM	2.26 µM	3.24 µM	2.01 µM	1.78 µM
Cn1c(=O)c2c(nc3n2CC(C(=O)O)N3)n(C)c1=O (stereo not drawn)	0.242 µM	> 100 µM	> 100 µM	> 100 µM	> 100 µM	> 100 µM	> 100 µM	> 100 µM	> 100 µM	> 100 µM
COC(=O)[C@@H](O)[C@](O)(CCC(C)C)C(=O)O[C@@H]1C(OC)=C[C@]23CCCN2CCc2cc4c(cc2[C@H]13)OCO4	6.97 µM	6.09 µM	2.32 µM	6.26 µM	2.67 µM	2.57 µM	8.42 µM	3.16 µM	23 µM	5.99 µM
Nc1c(-c2ccc(Cl)c(Cl)c2)c2ccc([N+](=O)[O-])cc2c(=O)n1-c1nc2ccccc2s1	> 100 µM	46.8 µM	92.6 µM	2.81 µM	> 49.4 µM	12.9 µM	18.1 µM	16.3 µM	> 100 µM	1.18 µM
Cc1oc2c(cc(O)c3cc(O)ccc32)c2cccc1-2	> 100 µM	> 100 µM	> 100 µM	> 100 µM	> 100 µM	> 100 µM	> 100 µM	> 100 µM	> 100 µM	> 100 µM
O=C(/C=C/c1ccc2c(c1)OCO2)c1ccc(O)cc1	–	30.3 µM	32.1 µM	28.8 µM	30.5 µM	26.2 µM	26.2 µM	32.5 µM	27.1 µM	29.1 µM
